Test results as given in publication PMC7143578, “Terpenoids from the Deep-Sea-Derived Fungus Penicillium thomii YPGA3 and Their Bioactivities” (Marine Drugs, 2020).
Values belong to the compound of their own block, whether it stands above or below them.

Legend:
[1] = tested on: NO production in LPS-activated RAW 264.7 macrophages; assay: Inhibition of NO production in LPS-activated RAW 264.7 macrophages; assay type: cell-based; conditions: Mus musculus, RAW264.7, 50 μM, read-out: Inhibitions (%) on NO production
Procedure: (§1) The isolated compounds were also evaluated for their inhibitory effects against NO production in LPS-activated RAW 264.7 macrophages at the concentration of 50 μM following the same procedures in our previous study. The cell viability was further determined by the MTT assay to evaluate whether the inhibition on NO production was owing to the cytotoxicity.

[2] = MTT cell viability of RAW 264.7 macrophages; assay type: cell-based; conditions: mouse, LPS-activated RAW 264.7 macrophages, MTT assay, read-out: cytotoxicity (%) toward RAW 264.7 (cell viability)
Procedure: as §1

[3] = Cytotoxicity toward MCF-7 breast carcinoma cells; assay type: cell-based; parameters: concentration or dose not given beside the values; conditions: human, read-out: cytotoxicity (%) toward MCF-7 (cell viability)
[4] = Cytotoxicity toward MDA-MB-468 breast carcinoma cells; assay type: cell-based, human; parameters: viability: concentration or dose not given beside the values; conditions: human, MDA-MB-468 breast carcinoma cells; read-out: cytotoxicity (%) toward MDA-MB-468 (cell viability)
[5] = tested on: α-glucosidase from Saccharomyces cerevisiae; assay: α-glucosidase inhibition assay (PNPG substrate); assay type: biochemical; conditions: for inhibition of α-glucosidase: initial concentration of 1 mM; for IC50: three replicates, read-out: IC50 against α-glucosidase
Procedure: The α-glucosidase inhibitory effect was assessed as follows. First, 0.2 U of α-glucosidase from Saccharomyces cerevisiae was purchased from Sigma-Aldrich (St. Louis, MO, USA), and was diluted in a 0.067 M phosphate buffer consisting of Na2HPO4·12H2O and KH2PO4 (pH 6.8). The assay was conducted in a 60 μL reaction system containing 20 μL of diluted enzyme solution, and 20μL of dimethyl sulfoxide (DMSO) or sample (dissolved in DMSO). […] The plate was incubated for an additional 20 min at 37 °C, and the reaction was quenched by adding 60 μL of 0.2 M Na2CO3. The final concentrations of tested compounds were between 0.2 and 2 mM. The optical density (OD) was measured at an absorbance wavelength of 405 nm using a Microplate Reader (Tecan, Mannedorf, Switzerland).

RAW 264.7 cells = assay: MTT cell viability of RAW 264.7 macrophages; assay type: cell-based; conditions: MTT assay, 50 μM
Procedure: as §1

MDA-MB-468 cells = assay: Cytotoxicity toward MDA-MB-468 breast carcinoma cells; assay type: cell-based, human; parameters: viability: concentration or dose not given beside the values; conditions: Homo sapiens, MDA-MB-468

Compound: COc1c2c(c(C)c3c1C(=O)OC3)O[C@@]1(C)C[C@@H](O)[C@@H](C(C)(C)O)[C@](C)(CCC(=O)O)[C@H]1C2 [Compound 5, austalide H acid]
inhibition at 50 µM [1]: 12.1%
viability at 50 µM [2]: 104%
viability [3]: 69.1%
viability [4]: 87.3%

Compound: COc1c2c(c(C)c3c1C(=O)OC3)OC1(C)CC(O)C34OC(O)(CCC3(C)C1C2)OC4(C)C (stereo not shown) [Compound 6, 17-O-demethylaustalide B]
inhibition at 50 µM [1]: -3.74%
viability at 50 µM [2]: 74.6%
viability [3]: 73.8%
viability [4]: 92.3%

Compound: C=C(C)[C@@H]1[C@H](O)C[C@]2(C)Oc3c(C)c4c(c(OC)c3C[C@@H]2[C@@]1(C)CCC(=O)O)C(=O)OC4 [Compound 7, austalide Q acid]
inhibition at 50 µM [1]: -3.08%
viability at 50 µM [2]: 80.8%
viability [3]: 74.8%
viability [4]: 91.1%

Compound: C=C(C)[C@@H]1CC[C@]2(C)Oc3c(C)c4c(c(OC)c3C[C@@H]2[C@@]1(C)CCC(=O)O)C(=O)OC4 [Compound 8, 13-deoxyaustalide Q acid]
inhibition at 50 µM [1]: 24%
viability at 50 µM [2]: 53.5%
viability [3]: 76.3%
viability [4]: 79.3%

Compound: C=C1CCC2C(C)(CCC(OC(C)=O)C2(C)C(=O)O)C1CCC(C)=CC(=O)O (stereo not drawn) [Compound 10, 3β-acetoxy-agathic acid]
inhibition of α-glucosidase [5]: low inhibition
viability at 50 µM [2]: 58.4%
cytotoxicity (%) toward RAW 264.7 (cell viability) (RAW 264.7 cells): obvious cytotoxic effects
viability [3]: 90%
viability [4]: 94.5%

inhibition of α-glucosidase [5]: low inhibition
Compound: C=C1CCC2C(C)(CCC(O)C2(C)C(=O)O)C1CCC(C)=CC(=O)O (stereo not drawn) [Compound 9, 3β-hydroxy-agathic acid]
inhibition at 50 µM [1]: 7.81%
viability at 50 µM [2]: 83.3%
viability [3]: 88.8%
viability [4]: 92.1%

inhibition of α-glucosidase [5]: more than 50%
IC50 [5]: 910 ± 4 µM
Compound: COC(=O)CC[C@]1(C)[C@H]2Cc3c(c(C)c4c(c3OC)C(=O)OC4)O[C@@]2(C)CC[C@H]1C(C)(C)O [Compound 2, austalide P]
inhibition at 50 µM [1]: > 50%
viability at 50 µM [2]: 46.2%
cytotoxicity (%) toward RAW 264.7 (cell viability) (RAW 264.7 cells): obvious cytotoxic effects
viability [3]: 117%
viability [4]: 78.2%

Compound: COC(=O)CC[C@]1(C)[C@H]2Cc3c(c(C)c4c(c3OC)C(=O)OC4)O[C@@]2(C)C[C@@H](O)[C@H]1C(C)(C)O [Compound 3, austalide H]
inhibition at 50 µM [1]: -9.91%
viability at 50 µM [2]: 60.9%
viability [3]: 84.7%
viability [4]: 87.2%

inhibition of α-glucosidase [5]: more than 50%
IC50 [5]: 525 ± 2 µM
Compound: C=C1CC[C@@H]2[C@](C)(CCC[C@]2(C)C(=O)O)[C@H]1CC/C(C)=C/C(=O)O [Compound 11, agathic acid]
inhibition at 50 µM [1]: 4.85%
viability at 50 µM [2]: 89.9%
viability [3]: 83.5%
viability [4]: 89.3%

Compound: COc1c2c(c(C)c3c1C(=O)OC3)O[C@@]1(C)CC[C@@H](C(C)(C)O)[C@](C)(CCC(=O)O)[C@H]1C2 [Compound 4, austalide P acid]
inhibition at 50 µM [1]: 5.29%
viability at 50 µM [2]: 97.4%
viability [3]: 82.4%
viability [4]: 92.6%

Compound: COC(=O)CCC1(C)C(C(C)(C)O)CCC2(C)Oc3c(C)c4c(c(O)c3CC21)C(=O)OC4 (stereo not shown) [Compound 1, austalide Y]
viability at 50 µM [2]: 33.1%
cytotoxicity (%) toward RAW 264.7 (cell viability) (RAW 264.7 cells): obvious cytotoxic effects
viability [3]: 104%
viability [4]: 31.6%
IC50 (MDA-MB-468 cells): 38.9 ± 1.83 µM
